Values joined by “and” are separate entries in the source; they are usually repeats but may differ in a detail not shown here. Equal entries are not always repeated. Where two headings read alike, the source gives them in different places.
Experiments:
avian osteoclasts [1] = test: Bone resorption assay with [3H]-proline labeled bone and isolated osteoclasts; format: cell-based, Gallus domesticus; conditions: for IC (essentially complete): 72 h, read-out: concentration giving essentially complete inhibition of bone resorption; for bone resorption: negative to concentration: quadruplicate assays
Protocol: Arian osteoclasts were isolated from medullary bone of calcium-starved white leghorn laying hens, Gallus domesticus, essentially as described by Blair et al. (1986). […] 90-98% of cell mass of sedimenting material consists of osteoclasts or essentially inert red cells (Zambonin-Zallone et al., 1982; Blair et al., 1986). Although rich in osteoclasts, these preparations contain significant numbers of all other components of bone, including osteoblasts and marrow cells.
Cells were plated on glass cover slips in 3 cm petri plates for fluorescence studies, or 15 cm petri plates for Western Blots, or 24 well plates (2 cm^2 /well) for resorption and binding studies. For resorption and binding studies, cells were plated at 5×10^3 /well. Cells were maintained in α-MEM containing 5% fetal calf serum, 5% chicken serum, 100 μg/ml streptomycin and 100 units/ml penicillin at 37° C. in humidified air with 5% CO2.
Where bone was used, this was devitalized fragmented rat bone (Blair et al., 1986) sieved to sizes indicated, usually 25-50 μm. For studies of osteoclasts attached to bone or tissue culture plates, 100 μg unlabeled bone per 2 cm^2 well was used, or 5 mg per 10 cm plate.
Bone resorption was measured using [^3 H]-proline labeled bone (Blair et al., 1986).

avian osteoclasts [2] = test: as above; format: cell-based, Gallus domesticus; conditions: Gallus gallus, Osteoclast, read-out: half maximal effect on bone resorption, 100 μg 3H-proline labeled bone, 10^4 osteoclasts
[3] = tested on: avian osteoclast membrane HCl transport; test: Osteoclast membrane vesicle acid transport (acridine orange fluorescence quenching); format: biochemical, Gallus domesticus; conditions: for effect of valinomycin on inhibited vesicle acid transport: 120 mM KCl, 5 μM herbimycin, 20 μM genistein; for IC50: osteoclast membrane vesicles, read-out: half maximal inhibition of osteoclast acid transport / acid secretion; for reversal of inhibition by by-passing chloride conductivity with valinomycin: valinomycin 2 μM, potassium 120 mM; for activity on acid transport: 25 μM
osteoclasts [4] = test: in vitro
Protocol: (§1) Since advantageous effects are seen at 1 μM, with half maximal effects at 2-3 μM, toxicity at 30 μM indicates a broad therapeutic margin. […] It should also be noted that doses would not be designed to achieve 100%, or even 50%, inhibition as osteoclasts are vital cells. Thus, 10-20% inhibition would likely result in a clear benefit to the patient without significant side effects, particularly as over-inhibtion would be compensated for by production of PTH.

osteoclasts [5] = test: Bone binding (adherence of labeled bone fragments to cultured osteoclasts); format: cell-based, Gallus domesticus
Protocol: Bone binding was determined by adherence of bone fragments to cultured cells (Carano et al., 1990). Briefly, this entailed adding labeled bone fragments to 3 day osteoclast cultures, incubating 4 h at 37° C. in a α-MEM with 5% fetal calf serum and 5% chicken serum, washing with PBS […], solubilizing the label overnight in 6N HCl, and scintillation counting.

[6] = Southeast Asians, 70 mg per day; cited from earlier work
[7] = Biliary appearance of intestinally administered genistein in rats; format: in vivo; conditions: rat, bile, intestinal administration with NaTC, over a 4 hr period, read-out: fraction of administered genistein appearing in bile
Protocol: (§2) The low aqueous solubility of genistein (<50 μg per ml) should also be considered. This might result in a maximum total absorption independent of dose. […] The present inventors have used this delivery method for studies performed in rats. […] NaTC is a naturally occurring bile salt and may have a role in the absorption of genistein released from food.

Aqueous solubility = format: physicochemical
Protocol: as §2

in vitro = conditions: osteoclasts
Protocol: as §1

In the case of `CO[C@H]1[C@@H](OC)C[C@H](C)[C@@H](OC)C2=CC(=O)C=C(NC(=O)/C(C)=C/C=C\[C@H](OC)[C@@H](OC(N)=O)/C(C)=C/[C@@H]1C)C2=O` [Herbimycin A], the IC (essentially complete) (avian osteoclasts [1]; Gallus gallus, Osteoclast) is reported as 1 µM, the IC50 (avian osteoclasts [2]) is reported as 300 to 500 nM and the “effective dose on osteoclast acid secretion relative to genistein, fold lower” value [3] is reported as “about 10 fold”. The “effect of valinomycin on inhibited vesicle acid transport” value [3] was “restored acid transport activity”, the IC50 [3] was ~2000 nM and the “reversal of inhibition by by-passing chloride conductivity with valinomycin” value [3] was “partially reversed”. For the same molecule, the “toxicity relative to genistein” value (osteoclasts [4]) was “about ten times more toxic” and the “toxicity threshold relative to genistein, fold lower” value (osteoclasts [4]; chicken) was “about 10 fold”.
With `N#CC(C#N)=Cc1cc(O)c(O)c(O)c1` [Tyrphostin A25] the “activity on acid transport” value [3] was “inactive”.
For `N#CC(=Cc1ccc(O)c(O)c1)C(N)=S` [Tyrphostin A47], the “bone resorption: negative to concentration” value (avian osteoclasts [1]) was > 20 µM and the IC50 [3] was 12000 nM.
For `O=c1c(-c2ccc(O)cc2)coc2cc(O)ccc12` [daidzein, 4',7-dihydroxyisoflavone], the “effect on bone resorption” value (avian osteoclasts [1]; 10 μM) was “no effect”, the inhibition at 30 µM (avian osteoclasts [1]; Gallus gallus, Osteoclast, 30 μM) was ~10% and the “activity in the osteoclast assay systems” value (avian osteoclasts [1]; osteoclast assay systems disclosed) was “negligible activity”. The “bone resorption: negative to concentration” value (avian osteoclasts [1]) was > 20 µM, the “activity on acid transport” value [3] was “inactive” and the “inhibition of osteoclast acid transport” value ([3]; 30 μM) was < 20%.
In the case of `O=c1c(-c2ccc(O)cc2)coc2cc(O)cc(O)c12` [genistein, 5,7,4'-trihydroxyisoflavone], the “effect on osteoclast binding to bone” value (osteoclasts [5]) is reported as “alter the ability of osteoclasts to bind to bone”, the “inhibition of bone resorption / degradation (FIG. 1)” value (avian osteoclasts [1]) is reported as “significantly inhibited” and the IC (essentially complete) (avian osteoclasts [1]; Gallus gallus, Osteoclast, at 3 days) is reported as 20 µM. The “inhibition of bone resorption / degradation (FIG. 1)” value (avian osteoclasts [1]; listed as Genistein) was “significantly inhibits”, the “ill effects of dietary intake” value [6] was “without obvious ill effects” and the dose excreted at 4 h [7] was 40 to 50%. For the same molecule, the “aqueous solubility when mixed with bile salt” value (Aqueous solubility; mixed with sodium taurocholate (NaTC)) was “substantially enhanced”, the solubility (Aqueous solubility; water) was < 50 µg/mL and the “level effective at inhibiting osteoclast acid secretion” value [3] was “less than 1 μM and < 0.27 μg/ml”. For the same molecule, the “effect of valinomycin on inhibited vesicle acid transport” value [3] was “valinomycin insensitive”, the “inhibition of osteoclast cell membrane acid transport (FIG. 2)” value ([3]; doses comparable to those inhibiting bone resorption) was “inhibited” and the IC50 [3] was ~3000 nM. For the same molecule, the “reversal of inhibition by by-passing chloride conductivity with valinomycin” value [3] was “not reversed”, the MCC (in vitro; chicken) was 30 µM and the selectivity ratio (in vitro) was ~30. For the same molecule, the “time in which cells die” value (osteoclasts [4]; 30 μM genistein) was 2 to 3 days.
